Data on 23 molecules can be found in US20230167103A1 (Bayer Aktiengesellschaft, priority 2020, published 2023).

In this assay the target is T1, human DGKζ (Homo sapiens, UniProt Q13574).
T1 construct: made in house; host or cells: Sf9 insect cells, baculovirus
In words: Human DGKζ kinase activity inhibition assay (ADP-Glo). The assay is classed as biochemical. As for the experimental part: Human diacylglycerol kinase zeta (DGKζ) inhibitory activity of compounds of the present invention was quantified employing the human DGKζ kinase activity assay as described in the following paragraphs. In essence, the enzyme activity was measured by quantification of the adenosine-di-phosphate (ADP) generated as a co-product of the enzyme reaction via the “ADP-Glo™ Kinase Assay” kit from the company Promega. This detection system works as follows: In a first step the adenosine-tri-phosphate (ATP) not consumed in the kinase reaction is quantitatively converted to cyclic adenosine-mono-phosphate (cAMP) employing an adenylate cyclase (“ADP-Glo-reagent”), then the adenylate cyclase is stopped and the ADP generated in the kinase reaction is converted to ATP, which subsequently generates in a luciferase-based reaction a glow-luminescence signal (“Kinase Detection Reagent”).
C-terminally FLAG-tagged, recombinant full-length human DGKζ (inhouse expressed in baculovirus infected insect cells, purified using anti-Flag pulldown and size exclusion chromatography) was used as enzyme. As an alternative, commercially available enzyme by Carnabio can be used. As substrate for the kinase, 1,2-dioleoyl-sn-glycerol, reconstituted in octyl-β-D-glucopyranoside micelles, was used. […] Subsequently, 22.55 volumes of a 510 mM solution of octyl-β-D-glucopyranoside (Sigma-Aldrich, Cat. #O8001-10G) in 50 mM MOPS buffer (pH 7.4) were added, and the mixture was sonicated in an ultrasonic bath for 20 s. Then 35 volumes of 50 mM MOPS buffer (pH 7.4) were added to yield a solution of 0.28 mM 1,2 dioleoyl-sn-glycerol and 200 mM octyl-β-D-glucopyranoside, which was aliquoted, flash-frozen in liquid nitrogen, and stored at −20° C. until use.
For the assay 50 nl of a 100-fold concentrated solution of the test compound in dimethyl sulfoxide (DMSO, Sigma) was pipetted into either a white 1536-well or a white low-volume 384-well microtiter plate (both Greiner Bio-One, Frickenhausen, Germany). […] The concentration of DGKζ was adjusted depending of the activity of the enzyme lot and was chosen appropriate to have the assay in the linear range, a typical concentration is about 0.1 nM. The reaction was stopped by the addition of 2.5 μL of “ADP-Glo-reagent” (1 to 1.5 diluted with water) and the resulting mixture was incubated at 22° C. for 1 h to convert the ATP not consumed in the kinase reaction completely to cAMP. Subsequently 2.5 μl of the “kinase detection reagent” (1.2 fold more concentrated than recommended by the producer) were added, the resulting mixture was incubated at 22° C. for 1 h and then the luminescence measured with a suitable measurement instrument (e.g. Viewlux™ from Perkin-Elmer). The amount of emitted light was taken as a measure for the amount of ADP generated and thereby for the activity of the DGKζ.
The data were normalised (enzyme reaction without inhibitor=0% inhibition, all other assay components but no enzyme=100% inhibition).
(ADP-Glo turns the ADP formed in a reaction into a luminescent signal.)

Where [1] appears, read: example compounds, recombinant full-length human DGKζ, 1,2-dioleoyl-sn-glycerol 7 μM, ATP 55 μM, 20 min at 22° C., read-out: IC50 values of examples in in vitro human DGKζ kinase activity inhibition assays.

Like-named read-outs stand apart in the source and are kept apart here.

T1 sequence (Q13574 with tags, fused parts or gaps): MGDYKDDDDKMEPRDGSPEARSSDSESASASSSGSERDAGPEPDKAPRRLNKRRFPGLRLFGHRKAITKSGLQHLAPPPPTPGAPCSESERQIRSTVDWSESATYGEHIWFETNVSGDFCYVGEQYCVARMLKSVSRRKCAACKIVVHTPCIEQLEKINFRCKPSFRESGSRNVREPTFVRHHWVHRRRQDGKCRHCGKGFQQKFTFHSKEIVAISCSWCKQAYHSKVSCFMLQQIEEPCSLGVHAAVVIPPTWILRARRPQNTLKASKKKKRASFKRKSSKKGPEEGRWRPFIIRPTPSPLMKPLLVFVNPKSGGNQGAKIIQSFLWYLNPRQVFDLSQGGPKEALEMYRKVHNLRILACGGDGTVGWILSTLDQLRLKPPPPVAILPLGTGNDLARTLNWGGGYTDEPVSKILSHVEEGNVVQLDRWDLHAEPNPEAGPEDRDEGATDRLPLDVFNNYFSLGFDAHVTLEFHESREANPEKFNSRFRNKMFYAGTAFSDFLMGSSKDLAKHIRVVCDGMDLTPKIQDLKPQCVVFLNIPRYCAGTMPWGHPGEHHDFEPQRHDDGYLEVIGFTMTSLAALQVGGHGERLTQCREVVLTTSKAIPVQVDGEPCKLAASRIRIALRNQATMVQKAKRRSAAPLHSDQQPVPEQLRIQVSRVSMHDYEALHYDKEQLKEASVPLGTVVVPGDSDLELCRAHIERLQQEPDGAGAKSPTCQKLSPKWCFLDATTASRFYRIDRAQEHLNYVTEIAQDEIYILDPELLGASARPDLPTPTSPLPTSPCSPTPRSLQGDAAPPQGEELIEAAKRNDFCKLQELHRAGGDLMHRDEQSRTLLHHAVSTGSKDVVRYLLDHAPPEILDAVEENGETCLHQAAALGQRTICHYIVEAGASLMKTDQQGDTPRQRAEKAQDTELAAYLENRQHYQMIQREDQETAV

In general, IC50 refers to the midpoint of a concentration-inhibition curve. Take `CC(C(N)=O)N(c1ccc(F)cc1)c1nc(N)c(C(=O)c2cc(C(=O)NCC#N)no2)s1` (racemic) [Example 35, rac-5-[4-amino-2-(N-(2-amino-1-methyl-2-oxo-ethyl)-4-fluoro-anilino)thiazole-5-carbonyl]-N-(cyanomethyl)isoxazole-3-carboxamide]: the IC50 under setting [1] is 566 nM.

For the molecule `CC(C(N)=O)N(c1ccc(F)cc1)c1nc(N)c(C(=O)c2cc(C(=O)NC3(C)CCCC3)no2)s1` (racemic) [Example 39, rac-5-[4-amino-2-(N-(2-amino-1-methyl-2-oxo-ethyl)-4-fluoro-anilino)thiazole-5-carbonyl]-N-(1-methylcyclopentyl)isoxazole-3-carboxamide], under setting [1], the concentration for half-maximal inhibition (IC50) was determined as 53 nM.

`CC(C(N)=O)N(c1ccc(F)cc1)c1nc(N)c(C(=O)c2cc(CN3CCCCC3)no2)s1` (racemic) [Example 63, rac-2-(N-[4-amino-5-[3-(1-piperidylmethyl)isoxazole-5-carbonyl]thiazol-2-yl]-4-fluoro-anilino)propanamide]: the IC50 under setting [1] worked out at 88 nM.

Take `CC(C(N)=O)N(c1ccc(F)c(F)c1)c1nc(N)c(C(=O)c2cc(C(=O)NC3(C)CCC3)no2)s1` (single isomer, unassigned) [Example 44.1, 5-[4-amino-2-(N-(2-amino-1-methyl-2-oxo-ethyl)-3,4-difluoro-anilino)thiazole-5-carbonyl]-N-(1-methylcyclobutyl)isoxazole-3-carboxamide]: the IC50 under setting [1] was 19 nM.

Consider `Cc1cccc(-c2noc(C(=O)c3sc(N(c4ccc(F)cc4)C(C)C(N)=O)nc3N)n2)c1C` (racemic) [Example 56, rac-2-(N-[4-amino-5-[3-(2,3-dimethylphenyl)-1,2,4-oxadiazole-5-carbonyl]thiazol-2-yl]-4-fluoro-anilino)propanamide], for which, under setting [1], the IC50 is 14 nM.

Consider `CC(C(N)=O)N(c1ccc(F)cc1)c1nc(N)c(C(=O)c2cc(C(=O)NC3CC(F)(F)C3)no2)s1` (single isomer, unassigned) [Example 32.2, 5-[4-amino-2-(N-(2-amino-1-methyl-2-oxo-ethyl)-4-fluoro-anilino)thiazole-5-carbonyl]-N-(3,3-difluorocyclobutyl)isoxazole-3-carboxamide], for which, under setting [1], the IC50 amounted to 897 nM.

Turning to `CC(C(N)=O)N(c1ccc(F)cc1)c1nc(N)c(C(=O)c2cc(-c3ccc(Cl)cc3)no2)s1` (racemic) [Example 5, rac-2-(N-[4-amino-5-[3-(4-chlorophenyl)isoxazole-5-carbonyl]thiazol-2-yl]-4-fluoro-anilino)propanamide], under setting [1], the IC50 was found to be 67 nM.

As to `CC(C(N)=O)N(c1ccc(F)cc1)c1nc(N)c(C(=O)c2cc(C(=O)NC3(C4CC4)CC3)no2)s1` (racemic) [Example 24, rac-5-[4-amino-2-(N-(2-amino-1-methyl-2-oxo-ethyl)-4-fluoro-anilino)thiazole-5-carbonyl]-N-(1-cyclopropylcyclopropyl)isoxazole-3-carboxamide], the IC50 under setting [1] worked out at 120 nM.

On to `COc1ccc(-c2cc(C(=O)c3sc(N(c4ccc(F)cc4)C(C)C(N)=O)nc3N)on2)cn1` (racemic) [Example 71, rac-2-(N-[4-amino-5-[3-(6-methoxy-3-pyridyl))isoxazole-5-carbonyl]thiazol-2-yl]-4-fluoro-anilino)propanamide], for which the IC50 under setting [1] came out at 96 nM.

Turning to `CC(C(N)=O)N(c1ccc(F)cc1)c1nc(N)c(C(=O)c2cc(C(=O)N[C@@H]3C[C@@H]3F)no2)s1` (mixture of isomers) [Example 11, 5-[4-amino-2-(N-(2-amino-1-methyl-2-oxo-ethyl)-4-fluoro-anilino)thiazole-5-carbonyl]-N-[(cis)-2-fluorocyclopropyl]isoxazole-3-carboxamide], the IC50 under setting [1] is 2360 nM.

`CC(C(N)=O)N(c1ccc(F)cc1)c1nc(N)c(C(=O)c2cc(COc3ccc(C#N)cc3)no2)s1` (racemic) [Example 64, rac-2-(N-[4-amino-5-[3-[(4-cyanophenoxy)methyl]isoxazole-5-carbonyl]thiazol-2-yl]-4-fluoro-anilino)propanamide]: the IC50 under setting [1] is 32 nM.

Consider `CC(C(N)=O)N(c1ccc(F)cc1)c1nc(N)c(C(=O)c2nc(-c3cnn(C)c3)no2)s1` (racemic) [Example 58, rac-2-(N-[4-amino-5-[3-(1-methylpyrazol-4-yl)-1,2,4-oxadiazole-5-carbonyl]thiazol-2-yl]-4-fluoro-anilino)propanamide], for which the half-inhibitory concentration (IC50) under setting [1] came out at 325 nM.

`CC(C(N)=O)N(c1ccc(F)cc1)c1nc(N)c(C(=O)c2cc(Br)no2)s1` (single isomer, unassigned) [Example 6.2, 2-(N-[4-amino-5-(3-bromoisoxazole-5-carbonyl)thiazol-2-yl]-4-fluoro-anilino)propanamide]: the concentration for half-maximal inhibition (IC50) under setting [1] is 3490 nM.

With `CC(C(N)=O)N(c1ccc(F)cc1)c1nc(N)c(C(=O)c2nc(-c3ccccn3)no2)s1` (racemic) [Example 54, rac-2-(N-[4-amino-5-[3-(2-pyridyl)-1,2,4-oxadiazole-5-carbonyl]thiazol-2-yl]-4-fluoro-anilino)propanamide], the IC50 under setting [1] was determined as 306 nM.

As for `CC(C(N)=O)N(c1ccc(F)c(F)c1)c1nc(N)c(C(=O)c2cc(C(=O)NC3CCCC3)no2)s1` (single isomer, unassigned) [Example 46.1, 5-[4-amino-2-(N-(2-amino-1-methyl-2-oxo-ethyl)-3,4-difluoro-anilino)thiazole-5-carbonyl]-N-cyclopentyl-isoxazole-3-carboxamide], the IC50 under setting [1] turned out to be 27 nM.

With `CC(C(N)=O)N(c1ccc(F)cc1)c1nc(N)c(C(=O)c2cc(-c3ccccc3)no2)s1` (racemic) [Example 3, rac-2-(N-[4-amino-5-(3-phenylisoxazole-5-carbonyl)thiazol-2-yl]-4-fluoro-anilino)propanamide], the IC50 under setting [1] amounted to 104 nM.

On to `CC(C(N)=O)N(c1ccc(F)cc1)c1nc(N)c(C(=O)c2cc(-c3ccccc3F)no2)s1` (racemic) [Example 67, rac-2-(N-[4-amino-5-[3-(2-fluorophenyl)isoxazole-5-carbonyl]thiazol-2-yl]-4-fluoro-anilino)propanamide], for which the IC50 under setting [1] was determined as 109 nM.

As to `CC(C(N)=O)N(c1ccc(F)cc1)c1nc(N)c(C(=O)c2cc(-c3cccnc3)no2)s1` (racemic) [Example 7, rac-2-(N-[4-amino-5-[3-(3-pyridyl)isoxazole-5-carbonyl]thiazol-2-yl]-4-fluoro-anilino)propanamide], the 50% inhibitory concentration (IC50) under setting [1] came to 407 nM.

Turning to `CC(C(N)=O)N(c1ccc(F)cc1)c1nc(N)c(C(=O)c2cc(C(=O)NC3CC(F)(F)C3)no2)s1` (racemic) [Example 32, rac-5-[4-amino-2-(N-(2-amino-1-methyl-2-oxo-ethyl)-4-fluoro-anilino)thiazole-5-carbonyl]-N-(3,3-difluorocyclobutyl)isoxazole-3-carboxamide], the IC50 under setting [1] is 93 nM.

For the molecule `CC(C(N)=O)N(c1ccc(F)cc1)c1nc(N)c(C(=O)c2cc(OCC3CCC3)no2)s1` (racemic) [Example 80, rac-2-(N-[4-amino-5-[3-(cyclobutylmethoxy)isoxazole-5-carbonyl]thiazol-2-yl]-4-fluoro-anilino)propanamide], the IC50 under setting [1] stood at 31 nM.

For `CC(C(N)=O)N(c1ccc(F)cc1)c1nc(N)c(C(=O)c2cc(C(=O)Nc3ccccn3)no2)s1` (racemic) [Example 28, rac-5-[4-amino-2-(N-(2-amino-1-methyl-2-oxo-ethyl)-4-fluoro-anilino)thiazole-5-carbonyl]-N-(2-pyridyl)isoxazole-3-carboxamide], the IC50 under setting [1] worked out at 90 nM.

As to “rac-5-[4-amino-2-(N-(2-amino-1-methyl-2-oxo-ethyl)-4-fluoro-anilino)thiazole-5-carbonyl]-N-(1-methylcyclobutyl)isoxazole-3-carboxamide [Example 30]”, the IC50 (intermediates (comparative, lacking the R2 alkyl-carboxamide group), same assay conditions, read-out: IC50 values of intermediates in in vitro human DGKζ kinase activity inhibition assays) is 12000 nM.

`CC(C(N)=O)N(c1ccc(F)cc1)c1nc(N)c(C(=O)c2cc(C(=O)NC3CC3)no2)s1` (racemic) [Example 15, rac-5-[4-amino-2-(N-(2-amino-1-methyl-2-oxo-ethyl)-4-fluoro-anilino)thiazole-5-carbonyl]-N-cyclopropyl-isoxazole-3-carboxamide]: under setting [1], the IC50 came to 565 nM.
